Data taken from ChEMBL document CHEMBL1201862, “PubChem BioAssay data set” (2004).
Active and inactive are the calls of the source.

Key:
[1] = target: 5-hydroxytryptamine receptor 2A (Mus musculus, UniProt P35363); format: functional, cell-based;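 further: CHO-K1 cells with tagged receptor and beta-arrestin; agonist potency measured as compound-induced activation of the receptor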
Mu-type opioid receptor = Mu-type opioid receptor (Homo sapiens, UniProt P35372); format: functional, cell-based;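 further: U2OS cells with beta-arrestin recruitment to OPRM1 by beta-gal complementation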
[2] = HEp-2 cell cytotoxicity, dose response, cytotoxicity control for RSV inhibitor project, HTS (AID 2410); format: functional; settings: human respiratory syncytial virus
[3] = target: T1, Rac GTPase-activating protein 1 (Homo sapiens, UniProt Q9H0H5); experiment: MgcRacGAP GTPase-activating activity inhibitors, confirmation, biochemical, ADP Hunter fluorescence, primary and confirmatory (AID 624330); format: functional
T1 sequence (Q9H0H5 whole entry): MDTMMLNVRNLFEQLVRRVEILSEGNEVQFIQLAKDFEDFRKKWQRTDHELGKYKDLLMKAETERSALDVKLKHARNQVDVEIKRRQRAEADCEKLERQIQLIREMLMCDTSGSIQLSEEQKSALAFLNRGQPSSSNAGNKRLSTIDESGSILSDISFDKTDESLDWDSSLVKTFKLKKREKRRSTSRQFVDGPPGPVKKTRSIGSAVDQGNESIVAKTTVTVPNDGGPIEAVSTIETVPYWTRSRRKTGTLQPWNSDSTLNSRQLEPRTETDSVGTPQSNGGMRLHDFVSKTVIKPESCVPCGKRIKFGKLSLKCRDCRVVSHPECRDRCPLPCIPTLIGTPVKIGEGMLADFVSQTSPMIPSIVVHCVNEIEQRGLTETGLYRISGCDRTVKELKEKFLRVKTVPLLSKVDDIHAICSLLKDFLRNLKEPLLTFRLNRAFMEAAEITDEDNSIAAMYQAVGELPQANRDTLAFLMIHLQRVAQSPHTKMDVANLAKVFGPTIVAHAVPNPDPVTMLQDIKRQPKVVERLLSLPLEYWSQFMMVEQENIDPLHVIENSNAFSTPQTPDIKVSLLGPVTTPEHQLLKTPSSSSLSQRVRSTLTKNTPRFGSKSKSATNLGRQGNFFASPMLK

[4] = HeLa cell cytotoxicity, dose response, cytotoxicity control for MgcRacGAP inhibitor project (AID 624300); format: functional
[5] = microbe, parasite or virus in culture; format: functional; settings: Mycobacterium tuberculosis
[6] = off-target signal loss in HeLa-CEM21 co-culture – HeLa F-luc CTL cells, cherry-picked, counter-screen for HIV-1 Env fusion inhibitor project, dose response (AID 652040); format: functional, cell-based;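 further: potency for signal decrease marking cytotoxic or nonspecific inhibition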
[7] = HepG2 cell cytotoxicity, dose response, cytotoxicity control for Shn3 inhibitor project, CellTiter-Glo, cherry-picked (AID 624134); format: functional, cell-based
[8] = CEM21 lymphoblast cell cytotoxicity, dose response, cytotoxicity control for viral fusion inhibitor project, CellTiter-Glo luminescence, cherry-picked (AID 652042); format: functional, cell-based;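 further: potency for signal decrease meaning cytotoxicity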
[9] = inhibitors of HIV Env-driven cell fusion, dose response, cherry-pick (AID 652057); format: functional, cell-based
[10] = inhibitors of clade B AD8 Env fusion, dose response, cell-based, cherry-pick (AID 652062); format: functional;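 further: luciferase signal from cell-cell fusion driven by HIV-1 clade B AD8 Env; potency is for inhibitors of fusion seen as a drop in luminescence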
[11] = control 3'UTR Renilla luciferase suppression, dose response, counter-screen for Shn3 inhibitor project, cell-based, Clone20-Shn3RL, cherry-picked (AID 624133); format: functional
[12] = Shn3 3'UTR reporter inhibitors, dose response, cell-based, Clone20 osteoblasts, firefly luciferase, cherry-picked (AID 624132); format: functional;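 further: firefly luciferase luminescence from reporter carrying the Shn3 3'UTR in osteoblasts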
[13] = target: T2, Sentrin-specific protease 8 (Homo sapiens, UniProt Q96LD8); format: functional
T2 sequence (Q96LD8 whole entry): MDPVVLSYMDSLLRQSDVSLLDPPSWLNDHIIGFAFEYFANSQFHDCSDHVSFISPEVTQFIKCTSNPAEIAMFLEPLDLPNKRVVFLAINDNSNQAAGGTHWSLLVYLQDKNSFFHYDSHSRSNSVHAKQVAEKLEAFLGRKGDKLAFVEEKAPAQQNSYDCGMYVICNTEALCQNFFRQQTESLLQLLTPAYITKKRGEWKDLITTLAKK

[14] = target: T3, Replicative DNA helicase DnaB (Mycobacterium tuberculosis, UniProt P9WMR3); experiment: DnaB intein splicing inhibitors, dose response, biochemical, cell-free fluorescence (AID 449749); format: functional
T3 sequence (P9WMR3 whole entry): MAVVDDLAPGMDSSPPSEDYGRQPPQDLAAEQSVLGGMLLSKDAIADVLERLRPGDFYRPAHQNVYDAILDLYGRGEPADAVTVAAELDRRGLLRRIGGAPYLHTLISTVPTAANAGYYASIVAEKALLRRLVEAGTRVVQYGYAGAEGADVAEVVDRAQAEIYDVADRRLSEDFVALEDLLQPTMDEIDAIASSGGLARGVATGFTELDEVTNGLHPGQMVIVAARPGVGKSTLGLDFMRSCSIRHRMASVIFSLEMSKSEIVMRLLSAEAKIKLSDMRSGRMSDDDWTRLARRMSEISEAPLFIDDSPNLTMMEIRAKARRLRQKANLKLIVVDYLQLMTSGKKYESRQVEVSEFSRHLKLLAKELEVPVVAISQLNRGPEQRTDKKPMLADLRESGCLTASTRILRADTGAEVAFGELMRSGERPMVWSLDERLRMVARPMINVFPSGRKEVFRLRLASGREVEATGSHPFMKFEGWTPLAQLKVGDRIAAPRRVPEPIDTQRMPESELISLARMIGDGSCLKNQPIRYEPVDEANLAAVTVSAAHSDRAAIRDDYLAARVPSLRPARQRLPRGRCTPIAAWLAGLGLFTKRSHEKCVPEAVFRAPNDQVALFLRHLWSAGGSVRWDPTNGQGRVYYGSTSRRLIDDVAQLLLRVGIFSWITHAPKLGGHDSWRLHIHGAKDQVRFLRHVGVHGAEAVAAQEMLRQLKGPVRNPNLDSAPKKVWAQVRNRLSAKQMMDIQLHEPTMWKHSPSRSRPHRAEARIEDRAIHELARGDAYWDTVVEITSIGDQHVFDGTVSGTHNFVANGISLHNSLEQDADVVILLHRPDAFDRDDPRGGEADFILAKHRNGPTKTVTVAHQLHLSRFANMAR

Genome polyprotein = Genome polyprotein (dengue virus type 2, UniProt P29990); experiment: Dengue-2 NS5 methyltransferase inhibitors, primary screen, biochemical, confirmation dose response (AID 588689); format: functional
Protein RecA = target: T4, Protein RecA (Mycobacterium tuberculosis, UniProt P9WHJ3); experiment: Fluorescence Cell-Free Homogeneous Dose Retest to Identify Inhibitors of RecA-Intein Splicing Activity. [Related pubchem assays (depositor defined):AID2097, AID2223, AID489010, AID492950]; format: functional
T4 sequence (P9WHJ3 whole entry): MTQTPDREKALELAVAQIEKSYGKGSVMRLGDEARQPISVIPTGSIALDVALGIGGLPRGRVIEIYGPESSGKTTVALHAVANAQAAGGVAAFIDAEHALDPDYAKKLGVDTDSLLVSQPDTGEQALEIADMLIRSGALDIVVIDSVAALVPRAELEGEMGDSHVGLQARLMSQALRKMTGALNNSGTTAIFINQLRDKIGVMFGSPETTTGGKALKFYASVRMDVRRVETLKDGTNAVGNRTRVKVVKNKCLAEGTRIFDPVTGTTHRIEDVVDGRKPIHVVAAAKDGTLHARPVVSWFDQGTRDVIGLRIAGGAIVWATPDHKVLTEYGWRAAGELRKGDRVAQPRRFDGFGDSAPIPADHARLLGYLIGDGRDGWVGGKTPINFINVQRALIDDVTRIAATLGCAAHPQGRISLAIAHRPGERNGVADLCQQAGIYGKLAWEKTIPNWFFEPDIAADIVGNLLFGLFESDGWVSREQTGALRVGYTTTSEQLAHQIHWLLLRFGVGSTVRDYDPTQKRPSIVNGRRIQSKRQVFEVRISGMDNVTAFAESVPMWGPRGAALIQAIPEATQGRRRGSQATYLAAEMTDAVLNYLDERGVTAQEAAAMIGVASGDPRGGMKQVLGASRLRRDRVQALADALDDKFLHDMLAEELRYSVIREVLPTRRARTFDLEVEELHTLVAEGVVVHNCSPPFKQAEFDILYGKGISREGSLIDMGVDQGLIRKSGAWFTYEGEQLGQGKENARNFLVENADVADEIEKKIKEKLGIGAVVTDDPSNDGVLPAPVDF

[15] = target: T2, Sentrin-specific protease 8; format: functional; remark: listed apart in the source
[16] = target: T5, Apoptotic protease-activating factor 1 (Homo sapiens, UniProt O14727); format: functional
T5 sequence (O14727 whole entry): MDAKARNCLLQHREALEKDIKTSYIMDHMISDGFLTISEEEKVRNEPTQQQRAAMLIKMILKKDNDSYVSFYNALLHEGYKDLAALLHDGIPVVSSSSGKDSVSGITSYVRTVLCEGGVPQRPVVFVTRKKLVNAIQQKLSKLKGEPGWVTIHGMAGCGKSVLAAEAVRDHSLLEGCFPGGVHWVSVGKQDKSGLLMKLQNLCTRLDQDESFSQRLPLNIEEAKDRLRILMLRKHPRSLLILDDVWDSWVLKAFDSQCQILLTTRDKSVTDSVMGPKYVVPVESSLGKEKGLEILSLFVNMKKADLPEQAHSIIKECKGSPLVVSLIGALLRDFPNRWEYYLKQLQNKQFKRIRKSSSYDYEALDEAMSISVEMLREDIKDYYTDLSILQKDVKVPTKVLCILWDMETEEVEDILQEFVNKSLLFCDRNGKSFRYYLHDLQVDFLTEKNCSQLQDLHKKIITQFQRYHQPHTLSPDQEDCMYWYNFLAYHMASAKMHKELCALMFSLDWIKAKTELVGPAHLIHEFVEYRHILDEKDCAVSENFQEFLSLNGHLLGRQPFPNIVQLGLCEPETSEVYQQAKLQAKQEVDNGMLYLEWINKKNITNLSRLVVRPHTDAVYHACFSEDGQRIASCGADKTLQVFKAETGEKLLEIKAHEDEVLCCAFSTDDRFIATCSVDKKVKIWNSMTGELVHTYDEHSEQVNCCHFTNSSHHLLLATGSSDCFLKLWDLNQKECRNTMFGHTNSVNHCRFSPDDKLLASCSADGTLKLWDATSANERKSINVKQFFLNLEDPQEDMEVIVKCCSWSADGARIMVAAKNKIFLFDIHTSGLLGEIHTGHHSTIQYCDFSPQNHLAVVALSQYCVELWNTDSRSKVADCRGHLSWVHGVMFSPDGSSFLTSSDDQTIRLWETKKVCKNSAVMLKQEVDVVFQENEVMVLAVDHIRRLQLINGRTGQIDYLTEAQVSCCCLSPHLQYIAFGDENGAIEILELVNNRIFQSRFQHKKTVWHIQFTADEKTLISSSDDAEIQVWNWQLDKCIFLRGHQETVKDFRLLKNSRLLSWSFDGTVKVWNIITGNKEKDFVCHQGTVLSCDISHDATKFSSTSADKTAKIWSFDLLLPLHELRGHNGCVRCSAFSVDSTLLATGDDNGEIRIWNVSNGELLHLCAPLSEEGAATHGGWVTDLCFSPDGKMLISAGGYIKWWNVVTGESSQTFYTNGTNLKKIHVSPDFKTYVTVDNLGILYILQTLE

Mu-type opioid receptor, sequence (P35372 whole entry): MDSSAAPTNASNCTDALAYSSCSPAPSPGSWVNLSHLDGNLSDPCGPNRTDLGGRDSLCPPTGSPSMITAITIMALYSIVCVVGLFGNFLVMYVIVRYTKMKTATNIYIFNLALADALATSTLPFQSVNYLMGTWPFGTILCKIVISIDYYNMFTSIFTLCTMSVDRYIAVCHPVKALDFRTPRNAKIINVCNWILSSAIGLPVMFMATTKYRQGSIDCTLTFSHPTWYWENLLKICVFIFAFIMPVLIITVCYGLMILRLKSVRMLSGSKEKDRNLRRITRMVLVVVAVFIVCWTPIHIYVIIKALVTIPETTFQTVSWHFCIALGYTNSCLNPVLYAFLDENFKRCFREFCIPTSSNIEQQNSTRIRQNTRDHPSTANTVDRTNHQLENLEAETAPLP
5-hydroxytryptamine receptor 2A, sequence (P35363 whole entry): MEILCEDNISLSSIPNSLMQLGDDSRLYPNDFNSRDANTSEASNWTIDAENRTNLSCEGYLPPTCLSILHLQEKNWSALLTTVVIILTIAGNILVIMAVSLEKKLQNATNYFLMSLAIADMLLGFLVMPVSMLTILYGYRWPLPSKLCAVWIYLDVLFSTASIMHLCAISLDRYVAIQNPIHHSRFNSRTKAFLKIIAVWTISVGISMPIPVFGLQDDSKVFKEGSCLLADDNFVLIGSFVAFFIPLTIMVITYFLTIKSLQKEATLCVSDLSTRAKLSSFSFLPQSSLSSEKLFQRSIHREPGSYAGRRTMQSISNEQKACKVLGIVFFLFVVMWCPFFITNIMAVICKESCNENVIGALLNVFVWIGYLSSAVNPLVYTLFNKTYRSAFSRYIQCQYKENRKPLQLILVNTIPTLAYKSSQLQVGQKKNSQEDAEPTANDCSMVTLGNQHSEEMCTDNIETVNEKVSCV
Genome polyprotein, sequence (P29990 2492-3391 limits assumed): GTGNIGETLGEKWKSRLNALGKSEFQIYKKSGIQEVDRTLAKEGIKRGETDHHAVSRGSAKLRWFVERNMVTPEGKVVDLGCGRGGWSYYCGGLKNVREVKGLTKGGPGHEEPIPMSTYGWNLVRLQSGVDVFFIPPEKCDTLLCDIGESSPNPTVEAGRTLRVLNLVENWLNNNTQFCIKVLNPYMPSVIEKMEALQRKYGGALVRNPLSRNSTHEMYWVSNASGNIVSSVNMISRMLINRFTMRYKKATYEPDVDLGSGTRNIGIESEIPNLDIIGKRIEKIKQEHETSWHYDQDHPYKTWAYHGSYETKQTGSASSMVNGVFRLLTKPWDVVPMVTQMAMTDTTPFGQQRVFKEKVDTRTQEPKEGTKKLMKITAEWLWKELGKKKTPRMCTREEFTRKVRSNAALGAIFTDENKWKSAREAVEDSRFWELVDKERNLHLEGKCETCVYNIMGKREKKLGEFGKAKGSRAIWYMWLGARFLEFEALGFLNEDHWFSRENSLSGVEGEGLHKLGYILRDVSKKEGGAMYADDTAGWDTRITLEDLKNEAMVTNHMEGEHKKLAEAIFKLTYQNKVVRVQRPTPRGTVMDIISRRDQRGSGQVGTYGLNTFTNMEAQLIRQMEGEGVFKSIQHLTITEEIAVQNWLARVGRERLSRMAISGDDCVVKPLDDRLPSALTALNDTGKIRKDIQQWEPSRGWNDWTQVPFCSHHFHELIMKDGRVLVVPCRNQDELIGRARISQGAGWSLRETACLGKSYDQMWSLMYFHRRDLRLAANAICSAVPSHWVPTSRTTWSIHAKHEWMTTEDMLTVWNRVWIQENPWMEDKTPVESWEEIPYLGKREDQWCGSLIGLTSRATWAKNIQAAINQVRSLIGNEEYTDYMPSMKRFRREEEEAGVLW

O=C1NC[C@H](Cc2ccccc2)N(C[C@H]2CCCN2C[C@H](Cc2ccc(O)cc2)N2C[C@H](Cc3ccc(O)cc3)N(CC3CCCCCC3)C(=O)C2=O)C1=O
EC50 [1]: 4.46 µM (active)
EC50 (Mu-type opioid receptor): 92.5 µM (inactive)

CCN(CCNCC(O)COc1ccccc1C(C)C)c1cccc(C)c1 (stereo not drawn)
CC50 [2]: 20 µM (active)
IC50 [3]: 66.7 µM (active)
CC50 [4]: 36.1 µM (active)
CC50 [5]: 14.2 µM (active)

C=CCN1CCc2c(cc(O)c(O)c2Br)[C@@H](c2ccccc2)C1
EC50 [1]: 0.0982 µM (active)
EC50 (Mu-type opioid receptor): 92.5 µM (inactive)

FC(F)(F)c1nc(-c2cccs2)ncc1-c1nnnn1-c1ccc(Cl)cc1
AC50 [6]: 29 µM (active)
AC50 [7]: 29.1 µM (active)
AC50 [8]: 23 µM (active)
AC50 [9]: 42.6 µM (active)
AC50 [10]: 2.87 µM (active)
AC50 [11]: 1.9 µM (active)
AC50 [12]: 2.1 µM (active)

c1nc2nc[nH]c(N3CCN(Cc4ccc5c(c4)OCO5)CC3)c-2n1
EC50 [1]: 0.59 µM (active)
EC50 (Mu-type opioid receptor): 92.5 µM (inactive)

Cc1n[nH]c(O)c1C(c1ccc(-c2cccc(Cl)c2)o1)c1c(C)n[nH]c1O
IC50 [13]: 2.19 µM (active)
AC50 [14]: > 380 µM (inactive)
IC50 (Genome polyprotein): 56.5 µM (active)
EC50 (Protein RecA): 66.2 µM (active)
IC50 [15]: 3.19 µM (active)
IC50 [16]: 17.4 µM (active)
